Test results as given in ChEMBL document CHEMBL6134830, “Naturally inspired chimeric quinolone derivatives to reverse bacterial drug resistance” (Eur J Med Chem, 2025).
≈ marks a conversion by molar mass, not a printed value. Bridge positions count the residues as written; N and C are the ends. Square brackets hold non-standard residues; d marks the D form. Peptide text beside a SMILES is read from it. * marks the point of attachment. X2 = CC[C@H](C)CCCCC(=O)*; dDab = NCC[C@@H](N)C(=O)O; Dab = NCC[C@H](N)C(=O)O

Experiments:
Staphylococcus aureus [1] = assay: Antimicrobial activity against Staphylococcus aureus ATCC 25923 assessed as inhibition of bacterial growth measured after 20 hrs by CLSI protocol based Muller Hinton broth assay; format: functional
Cell membrane = assay: Disruption of cell membrane in methicillin-resistant Staphylococcus aureus assessed as PI-positive bacteria at 8 times MIC measured after 30 mins by PI staining based flow cytometry analysis (reference value: 7.49 %); format: subcellular
Enterococcus gallinarum = assay: Antimicrobial activity against Enterococcus gallinarum ATCC 49573 assessed as inhibition of bacterial growth measured after 20 hrs by CLSI protocol based Muller Hinton broth assay; format: functional
Staphylococcus aureus [2] = assay: Antimicrobial activity against Methicillin-resistant Staphylococcus aureus ATCC 43300 assessed as inhibition of bacterial growth measured after 20 hrs by CLSI protocol based Muller Hinton broth assay; format: functional
Enterococcus faecalis = assay: Antimicrobial activity against Enterococcus faecalis ATCC 19433 assessed as inhibition of bacterial growth measured after 20 hrs by CLSI protocol based Muller Hinton broth assay; format: functional
Escherichia coli = assay: Antimicrobial activity against Escherichia coli ATCC 25922 assessed as inhibition of bacterial growth measured after 20 hrs by CLSI protocol based Muller Hinton broth assay; format: functional
Pseudomonas aeruginosa = assay: Antimicrobial activity against Pseudomonas aeruginosa ATCC 27853 assessed as inhibition of bacterial growth measured after 20 hrs by CLSI protocol based Muller Hinton broth assay; format: functional
Acinetobacter baumannii = assay: Antimicrobial activity against Acinetobacter baumannii ATCC 19606 assessed as inhibition of bacterial growth measured after 20 hrs by CLSI protocol based Muller Hinton broth assay; format: functional
[3] = Hemolytic activity in Sprague-Dawley rat Red blood cells at 200 ug/ml incubated for 1 hr by absorbance based analysis; format: toxicity, cell-based; settings: erythrocyte, dose 200 µg/ml
[4] = Hemolytic activity in Sprague-Dawley rat Red blood cells at 100 ug/ml incubated for 1 hrs by absorbance based analysis; format: toxicity, cell-based; settings: erythrocyte, dose 100 µg/ml
L929 = assay: Cytotoxicity against mouse L929 cells assessed as reduction in cell viability at 25 microg/mL incubated for 24 hrs by MTT assay; format: toxicity, cell-based; settings: l929, 24 h, dose 25 µg/ml

Row | Compound | MIC (Staphylococcus aureus [1]) | other results
1 | CCCCCCCCCCCCCCCCNC(=O)[C@H](CCCCN)NC(=O)[C@H](CCCCN)NC(=O)[C@H](CCCCN)NC(=O)c1ccc(C(=O)N2CCN(c3cc4c(cc3F)c(=O)c(C(=O)O)cn4C3CC3)CC2)cc1 | > 50 µg/mL | 
2 | CCCCCCCCCCCCNC(=O)[C@H](CCCCN)NC(=O)[C@H](CCCCN)NC(=O)[C@H](CCCCN)NC(=O)CCC(=O)N1CCN(c2cc3c(cc2F)c(=O)c(C(=O)O)cn3C2CC2)CC1 | > 50 µg/mL | 
3 | CC(C)CCCCC(=O)N[C@@H](CCN)C(=O)N[C@H](C(=O)N[C@@H](CCN)C(=O)N[C@H]1CCNC(=O)[C@H]([C@@H](C)O)NC(=O)[C@H](CCN)NC(=O)[C@H](CCN)NC(=O)[C@H](CC(C)C)NC(=O)[C@@H](Cc2ccccc2)NC(=O)[C@@H](CCN)NC1=O)[C@@H](C)O.CC[C@H](C)CCCCC(=O)N[C@@H](CCN)C(=O)N[C@H](C(=O)N[C@@H](CCN)C(=O)N[C@H]1CCNC(=O)[C@H]([C@@H](C)O)NC(=O)[C@H](CCN)NC(=O)[C@H](CCN)NC(=O)[C@H](CC(C)C)NC(=O)[C@@H](Cc2ccccc2)NC(=O)[C@@H](CCN)NC1=O)[C@@H](C)O (X2-[Dab]T[Dab][Dab][dDab][dF]L[Dab][Dab]T; lactam 4-C) |  | Activity (Cell membrane): 57.2%
4 | NCCCC[C@H](NC(=O)c1ccc(C(=O)N2CCN(c3cc4c(cc3F)c(=O)c(C(=O)O)cn4C3CC3)CC2)cc1)C(=O)N[C@@H](CCCCN)C(=O)N[C@@H](CCCCN)C(=O)NCc1ccc(-c2ccccc2)cc1 | 1.56 µg/mL (≈ 1.52 µM) | MIC (Enterococcus gallinarum): 50 µg/mL (≈ 48.6 µM); MIC (Staphylococcus aureus [2]): 6.25 µg/mL (≈ 6.07 µM); MIC (Enterococcus faecalis): 50 µg/mL (≈ 48.6 µM); MIC (Escherichia coli): 25 µg/mL (≈ 24.3 µM); MIC (Pseudomonas aeruginosa): 25 µg/mL (≈ 24.3 µM); MIC (Acinetobacter baumannii): 25 µg/mL (≈ 24.3 µM); Activity [3]: Non-toxic
5 | CCCCCCCCCCCCNC(=O)[C@H](CCCCN)NC(=O)c1ccc(C(=O)N2CCN(c3cc4c(cc3F)c(=O)c(C(=O)O)cn4C3CC3)CC2)cc1 | 50 µg/mL (≈ 64.5 µM) | 
6 | N=C(N)NCCC[C@H](N)C(=O)N1CCN(c2cc3c(cc2F)c(=O)c(C(=O)O)cn3C2CC2)CC1 | ≥ 12.5 µg/mL | 
7 | NCCCC[C@H](NC(=O)c1ccc(C(=O)N2CCN(c3cc4c(cc3F)c(=O)c(C(=O)O)cn4C3CC3)CC2)cc1)C(=O)NCc1ccccc1Cl | 25 µg/mL (≈ 34.2 µM) | 
8 | CCCCCCCCCCCCNC(=O)[C@H](CCCCN)NC(=O)[C@H](CCCCN)NC(=O)[C@H](CCCCN)NC(=O)CCCCCCCCCCCNC(=O)CCC(=O)N1CCN(c2cc3c(cc2F)c(=O)c(C(=O)O)cn3C2CC2)CC1 | 3.12 µg/mL (≈ 2.65 µM) | MIC (Enterococcus gallinarum): 6.25 µg/mL (≈ 5.29 µM); MIC (Staphylococcus aureus [2]): 6.25 µg/mL (≈ 5.29 µM); MIC (Enterococcus faecalis): 12.5 µg/mL (≈ 10.6 µM); MIC (Escherichia coli): 12.5 µg/mL (≈ 10.6 µM); MIC (Pseudomonas aeruginosa): 6.25 µg/mL (≈ 5.29 µM); MIC (Acinetobacter baumannii): 6.25 µg/mL (≈ 5.29 µM); Activity [4]: Toxic; Activity (L929): Toxic

Second part, led by results:

Row | MIC (Staphylococcus aureus [1]) | Compound | other results
9 | 25 µg/mL (≈ 36.2 µM) | CCCCCCNC(=O)[C@H](CCCCN)NC(=O)c1ccc(C(=O)N2CCN(c3cc4c(cc3F)c(=O)c(C(=O)O)cn4C3CC3)CC2)cc1 | 
10 | 12.5 µg/mL (≈ 17.4 µM) | CCCCCCCCNC(=O)[C@H](CCCCN)NC(=O)c1ccc(C(=O)N2CCN(c3cc4c(cc3F)c(=O)c(C(=O)O)cn4C3CC3)CC2)cc1 | 
11 | 25 µg/mL (≈ 36.9 µM) | CCCCCNC(=O)[C@H](CCCCN)NC(=O)c1ccc(C(=O)N2CCN(c3cc4c(cc3F)c(=O)c(C(=O)O)cn4C3CC3)CC2)cc1 | 
12 | 3.12 µg/mL (≈ 3.16 µM) | CCCCCCCCCNC(=O)[C@H](CCCCN)NC(=O)[C@H](CCCCN)NC(=O)[C@H](CCCCN)NC(=O)c1ccc(C(=O)N2CCN(c3cc4c(cc3F)c(=O)c(C(=O)O)cn4C3CC3)CC2)cc1 | 
13 | 3.12 µg/mL (≈ 3.2 µM) | CCCCCCCCNC(=O)[C@H](CCCCN)NC(=O)[C@H](CCCCN)NC(=O)[C@H](CCCCN)NC(=O)c1ccc(C(=O)N2CCN(c3cc4c(cc3F)c(=O)c(C(=O)O)cn4C3CC3)CC2)cc1 | 
14 | 25 µg/mL (≈ 35.9 µM) | NCCCC[C@H](NC(=O)c1ccc(C(=O)N2CCN(c3cc4c(cc3F)c(=O)c(C(=O)O)cn4C3CC3)CC2)cc1)C(=O)NCc1ccccc1 | 
15 | 25 µg/mL (≈ 31.1 µM) | CCCCCCCCCCCCCCNC(=O)[C@H](CCCCN)NC(=O)c1ccc(C(=O)N2CCN(c3cc4c(cc3F)c(=O)c(C(=O)O)cn4C3CC3)CC2)cc1 | 
16 | 6.25 µg/mL (≈ 7.26 µM) | CCCCCCCCCNC(=O)[C@H](CCCCN)NC(=O)[C@H](CCCCN)NC(=O)c1ccc(C(=O)N2CCN(c3cc4c(cc3F)c(=O)c(C(=O)O)cn4C3CC3)CC2)cc1 | 
17 | 3.12 µg/mL (≈ 3.07 µM) | CCCCCCCCCNC(=O)[C@H](CCCCN)NC(=O)[C@H](CCCCN)NC(=O)[C@H](CCCNC(=N)N)NC(=O)c1ccc(C(=O)N2CCN(c3cc4c(cc3F)c(=O)c(C(=O)O)cn4C3CC3)CC2)cc1 | 
18 | 6.25 µg/mL (≈ 5.55 µM) | CCCCCCCCCCCCNC(=O)[C@H](CCCCN)NC(=O)[C@H](CCCCN)NC(=O)[C@H](CCCCN)NC(=O)CCNC(=O)CCNC(=O)CCC(=O)N1CCN(c2cc3c(cc2F)c(=O)c(C(=O)O)cn3C2CC2)CC1 | 
19 | 3.12 µg/mL (≈ 3.11 µM) | CCCCCCCCCCNC(=O)[C@H](CCCCN)NC(=O)[C@H](CCCCN)NC(=O)[C@H](CCCCN)NC(=O)c1ccc(C(=O)N2CCN(c3cc4c(cc3F)c(=O)c(C(=O)O)cn4C3CC3)CC2)cc1 | 
20 | 6.25 µg/mL (≈ 9.33 µM) | CCCCCCCCCCCC(=O)N[C@@H](CCCNC(=N)N)C(=O)N1CCN(c2cc3c(cc2F)c(=O)c(C(=O)O)cn3C2CC2)CC1 | 
